Assay [1] deals with Bacteroides fragilis. Put plainly: Antibacterial activity against Bacteroides fragilis UC12199. The class given is functional.
Assay [2] relates to Enterococcus faecalis. Put plainly: Antibacterial activity against Enterococcus faecalis UC9217. The class given is functional.
For assay [3], the system named is Mus musculus. The experiment in a line: Effective dose required to inhibit Staphylococcus aureus UC9213 in mice subjected to a lethal systemic infection (when administered orally). The class given is functional, organism-based.
Assay [4] relates to Staphylococcus epidermidis. Put plainly: Antibacterial activity against Staphylococcus epidermidis UC30031UC. Type of assay: functional.

Among the data in ChEMBL document CHEMBL1130991, “Synthesis and antibacterial activity of [6,5,5] and [6,6,5] tricyclic fused oxazolidinones” (Bioorg Med Chem Lett, 1998) are MIC and EC50 values, retold here.

In brackets after ≈: the same amount, converted by molar mass. Bounds are passed on as bounds.

Usually MIC stands for the lowest concentration found to suppress growth. A low value points to a more susceptible organism. Regarding `CC(=O)NC[C@@H]1OC(=O)N2c3ccc(-c4ccccc4)cc3C[C@@H]12`, the MIC in assay [1] amounted to 32 µg/mL (≈ 99.3 µM); in assay [2], 4 µg/mL (≈ 12.4 µM); in assay [4], 2 µg/mL (≈ 6.2 µM). Also, the EC50 in assay [3] was > 25 mg/kg.
